The target of the assay is T1, human 5-HT3A receptor (Homo sapiens, UniProt P46098).
T1 construct: host or cells: Xenopus laevis oocytes injected with in vitro transcribed mRNA
T1 sequence (P46098 24-478): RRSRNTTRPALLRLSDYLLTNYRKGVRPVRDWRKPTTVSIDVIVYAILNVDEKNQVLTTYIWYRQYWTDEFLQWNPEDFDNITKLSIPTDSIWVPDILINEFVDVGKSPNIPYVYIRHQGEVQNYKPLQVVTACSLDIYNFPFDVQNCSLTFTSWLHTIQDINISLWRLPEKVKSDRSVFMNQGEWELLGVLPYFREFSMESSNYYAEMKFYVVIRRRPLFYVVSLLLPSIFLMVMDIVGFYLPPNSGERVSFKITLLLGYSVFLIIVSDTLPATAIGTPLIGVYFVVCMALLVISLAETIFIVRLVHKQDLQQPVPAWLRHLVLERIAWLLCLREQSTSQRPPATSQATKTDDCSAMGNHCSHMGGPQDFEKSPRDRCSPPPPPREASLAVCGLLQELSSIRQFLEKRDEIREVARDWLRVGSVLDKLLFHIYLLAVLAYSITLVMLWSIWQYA
The assay is described as follows: cell-based. It counts as cell-based. On the procedure: Human 5-hydroxytryptamine (serotonin) receptor 3A cDNA (Genebank number: BC004453) was obtained from OriGene (Rockville, MD, USA). Figure 1A represents the chemical structure of two ergot alkaloids, EG and EC, obtained from Sigma-Aldrich (St. Louis, MO, USA). These ergot alkaloids were diluted in bath solution after dissolving in dimethyl sulfoxide (DMSO) for use as stock solutions. The final treatment concentration of DMSO was less than 0.01%. Xenopus laevis frogs were obtained from the Korean Xenopus Resource Center for Research (KXRCR000001, Chuncheon, Gangwondo, Korea), and other agents were purchased from Sigma-Aldrich.
To isolate oocytes, female Xenopus laevis were put into a container filled with ice and left for about one hour. When the blood vessels contracted and fell into a state similar to hibernation, the abdomen was incised, and the ovaries were removed and cut into small pieces in Ca^2+-free OR2 solution (82.5 mM NaCl, 2.5 mM KCl, 1 mM MgCl2, and 5 mM HEPES, pH 7.4) with 2 mg/mL collagenase. After a 2 h agitation to digest the follicle membranes, isolated oocytes in stages Ⅴ and Ⅵ were selected and washed repeatedly. The selected oocytes were maintained in ND96 incubation solution (96 mM NaCl, 2 mM KCl, 1.8 mM CaCl2, 1 mM MgCl2, 5 mM HEPES, 2.5 mM sodium pyruvate, and 50 µg/mL gentamycin, pH 7.4) at 16–18 °C. The solution containing the oocytes was changed twice a day and stored in a shaking incubator. Under the microscope, the end of a glass capillary was broken and fitted with a 20 µm diameter needle and filled with mineral oil, discharging air bubbles from the tip. When the Xenopus oocytes were ready for injection, 50 ng of mRNA was injected with a nanoliter injector (Drummond Scientific, Vernon Hills, IL, USA). The recording was started after two days of sufficient shaking incubation in ND96 solution. Surgery, microinjections, and the other handling of Xenopus laevis followed the standard protocols.
The oocytes in which mRNA was expressed during the incubation period allowed for the estimation of channel or receptor properties for observing drug and ligand potential interactions using a two-electrode voltage clamp (OC-725C; Warner Instruments, Hamden, CT, USA) and Digidata (1322A; Molecular Devices, Sunnyvale, CA, USA). The two-electrode voltage clamp had voltage and current electrodes that stably maintained the potential and delivered the transmembrane potential and high current. […] A computer transferred the converted output amplitude of the voltage clamp amplifiers to an input digital converter using pClamp 10 software (Axon Instruments, Union City, CA, USA). The voltage and current electrodes were filled with 3 M KCl (0.3–0.7 MΩ) and analyzed at a −80 mV holding potential. The oocytes were placed in the chamber and exposed to a ND96 solution at a flow rate of 2 mL per minute. In the electrophysiological experiments, the voltage ramp recording was performed at room temperature, and a current from −80 to +60 mV was applied to determine the current and voltage relationships. Inward peak traces of the 5-HT3A receptor and voltage ramp traces were converted to a value through Clampfit 9.0 (Molecular Devices, San Jose, CA, USA).
In the experiments, all data were represented as the mean ± SEM (standard error of the mean) of the 5-HT-stimulated inward peak in the 5-HT3A receptors. […] All curves plotted through the Hill equation were generated using Origin Pro 7.0 (OriginLab, Northampton, MA, USA). The significance of differences between the control and chanoclavine treatment was determined according to the p-value in the Student’s t-test. p-values of less than 0.05 were considered statistically significant.

For the compound `C[C@@H](CO)NC(=O)[C@@H]1C=C2c3cccc4[nH]cc(c34)C[C@H]2N(C)C1` [ergonovine, reference compound], the inhibition (as a rule, the relative decrease from the control value, in per cent) at 100 µM (100 µM compound with 100 µM 5-HT, −80 mV, read-out: inhibition of I5-HT) was determined as 1.1 ± 4.8%. Also, the “maximum inhibition (Imax)” value (Hill fit, co-application with 100 µM 5-HT, −80 mV) turned out to be 15 ± 5.7%. Further, the “effect of co-application with 5-HT on current” value (various concentrations with 100 µM 5-HT) is “did not show any noticeable reduction”. Moreover, where the note is “−80 mV holding potential, data not shown”, the “effect of compound alone (without 5-HT)” value is “no change”.

On to `NCCc1c[nH]c2ccc(O)cc12` [5-HT, 5-hydroxytryptamine, reference compound], for which the “Imax of normalized 5-HT concentration-response current” value was determined as 99.1 ± 14.2.
